{"source": "ChEMBL document CHEMBL1201861", "about": "“Genomics of Drug Sensitity in Cancer screening data, Wellcome Trust Sanger Institute”", "assay_in_all_cases": "cells", "key": {"SW1710": {"test_system": "SW1710", "format": "functional, cell-based, Homo sapiens", "conditions": "Homo sapiens, SW1710", "description": "SANGER: Inhibition of human SW1710 cell growth in a cell viability assay."}, "P30-OHK": {"test_system": "P30-OHK", "format": "functional, cell-based", "conditions": "Homo sapiens", "description": "SANGER: Inhibition of human P30-OHK cell growth in a cell viability assay."}, "NCI-H1650": {"test_system": "NCI-H1650", "format": "functional, cell-based, Homo sapiens", "conditions": "Homo sapiens, NCI-H1650", "description": "SANGER: Inhibition of human NCI-H1650 cell growth in a cell viability assay."}, "NB13": {"test_system": "NB13", "format": "functional, cell-based, Homo sapiens", "conditions": "Homo sapiens, NB13", "description": "SANGER: Inhibition of human NB13 cell growth in a cell viability assay."}, "CP66-MEL": {"test_system": "CP66-MEL", "format": "functional, cell-based, Homo sapiens", "conditions": "Homo sapiens, CP66-MEL", "description": "SANGER: Inhibition of human CP66-MEL cell growth in a cell viability assay."}, "MMAC-SF": {"test_system": "MMAC-SF", "format": "functional, cell-based, Homo sapiens", "conditions": "Homo sapiens, MMAC-SF", "description": "SANGER: Inhibition of human MMAC-SF cell growth in a cell viability assay."}, "IST-MES1": {"test_system": "IST-MES1", "format": "functional, cell-based, Homo sapiens", "conditions": "Homo sapiens, IST-MES1", "description": "SANGER: Inhibition of human IST-MES1 cell growth in a cell viability assay."}, "EW-16": {"test_system": "EW-16", "format": "functional, cell-based, Homo sapiens", "conditions": "Homo sapiens, EW-16", "description": "SANGER: Inhibition of human EW-16 cell growth in a cell viability assay."}, "NCI-H1563": {"test_system": "NCI-H1563", "format": "functional, cell-based, Homo sapiens", "conditions": "Homo sapiens, NCI-H1563", "description": "SANGER: Inhibition of human NCI-H1563 cell growth in a cell viability assay."}, "AU565": {"test_system": "AU565", "format": "functional, cell-based, Homo sapiens", "conditions": "Homo sapiens, AU565", "description": "SANGER: Inhibition of human AU565 cell growth in a cell viability assay."}, "NCI-H596": {"test_system": "NCI-H596", "format": "functional, cell-based, Homo sapiens", "conditions": "Homo sapiens, NCI-H596", "description": "SANGER: Inhibition of human NCI-H596 cell growth in a cell viability assay."}, "COLO-824": {"test_system": "COLO-824", "format": "functional, cell-based, Homo sapiens", "conditions": "Homo sapiens, COLO-824", "description": "SANGER: Inhibition of human COLO-824 cell growth in a cell viability assay."}, "NB69": {"test_system": "NB69", "format": "functional, cell-based, Homo sapiens", "conditions": "Homo sapiens, NB69", "description": "SANGER: Inhibition of human NB69 cell growth in a cell viability assay."}, "T84": {"test_system": "T84", "format": "functional, cell-based, Homo sapiens", "conditions": "Homo sapiens, T84", "description": "SANGER: Inhibition of human T84 cell growth in a cell viability assay."}, "M14": {"test_system": "M14", "format": "functional, cell-based, Homo sapiens", "conditions": "Homo sapiens, M14", "description": "SANGER: Inhibition of human M14 cell growth in a cell viability assay."}, "HT-1376": {"test_system": "HT-1376", "format": "functional, cell-based, Homo sapiens", "conditions": "Homo sapiens, HT-1376", "description": "SANGER: Inhibition of human HT-1376 cell growth in a cell viability assay."}, "ACHN": {"test_system": "ACHN", "format": "functional, cell-based, Homo sapiens", "conditions": "Homo sapiens, ACHN", "description": "SANGER: Inhibition of human ACHN cell growth in a cell viability assay."}, "DoTc2-4510": {"test_system": "DoTc2-4510", "format": "functional, cell-based, Homo sapiens", "conditions": "Homo sapiens, DoTc2-4510"}, "COR-L105": {"test_system": "COR-L105", "format": "functional, cell-based, Homo sapiens", "conditions": "Homo sapiens, COR-L105", "description": "SANGER: Inhibition of human COR-L105 cell growth in a cell viability assay."}, "A 172": {"test_system": "A 172", "format": "functional, cell-based, Homo sapiens", "conditions": "Homo sapiens, A 172"}, "SW1990": {"test_system": "SW1990", "format": "functional, cell-based, Homo sapiens", "conditions": "Homo sapiens, SW1990", "description": "SANGER: Inhibition of human SW1990 cell growth in a cell viability assay."}, "GI-1": {"test_system": "GI-1", "format": "functional, cell-based, Homo sapiens", "conditions": "Homo sapiens, GI-1", "description": "SANGER: Inhibition of human GI-1 cell growth in a cell viability assay."}, "Huh-7": {"test_system": "Huh-7", "format": "functional, cell-based, Homo sapiens", "conditions": "Homo sapiens, Huh-7", "description": "SANGER: Inhibition of human HuH-7 cell growth in a cell viability assay."}, "ES3": {"test_system": "ES3", "format": "functional, cell-based, Homo sapiens", "conditions": "Homo sapiens, ES3"}, "MN-60": {"test_system": "MN-60", "format": "functional, cell-based", "conditions": "Homo sapiens", "description": "SANGER: Inhibition of human MN-60 cell growth in a cell viability assay."}, "ASPC1": {"test_system": "ASPC1", "format": "functional, cell-based, Homo sapiens", "conditions": "Homo sapiens, ASPC1", "description": "SANGER: Inhibition of human AsPC-1 cell growth in a cell viability assay."}, "K5": {"test_system": "K5", "format": "functional, cell-based, Homo sapiens", "conditions": "Homo sapiens, K5"}, "D-247MG": {"test_system": "D-247MG", "format": "functional, cell-based, Homo sapiens", "conditions": "Homo sapiens, D-247MG", "description": "SANGER: Inhibition of human D-247MG cell growth in a cell viability assay."}, "UMUC3": {"test_system": "UMUC3", "format": "functional, cell-based, Homo sapiens", "conditions": "Homo sapiens, UMUC3", "description": "SANGER: Inhibition of human UM-UC-3 cell growth in a cell viability assay."}, "U-118-MG": {"test_system": "U-118-MG", "format": "functional, cell-based, Homo sapiens", "conditions": "Homo sapiens, U-118-MG", "description": "SANGER: Inhibition of human U-118-MG cell growth in a cell viability assay."}, "G-401": {"test_system": "G-401", "format": "functional, cell-based, Homo sapiens", "conditions": "Homo sapiens, G-401", "description": "SANGER: Inhibition of human G-401 cell growth in a cell viability assay."}, "DBTRG-05MG": {"test_system": "DBTRG-05MG", "format": "functional, cell-based, Homo sapiens", "conditions": "Homo sapiens, DBTRG-05MG", "description": "SANGER: Inhibition of human DBTRG-05MG cell growth in a cell viability assay."}, "MDA-MB-175-VII": {"test_system": "MDA-MB-175-VII", "format": "functional, cell-based, Homo sapiens", "conditions": "Homo sapiens, MDA-MB-175-VII"}, "SF-268": {"test_system": "SF-268", "format": "functional, cell-based, Homo sapiens", "conditions": "Homo sapiens, SF-268", "description": "SANGER: Inhibition of human SF268 cell growth in a cell viability assay."}, "PANC-03-27": {"test_system": "PANC-03-27", "format": "functional, cell-based, Homo sapiens", "conditions": "Homo sapiens, PANC-03-27", "description": "SANGER: Inhibition of human PANC-03-27 cell growth in a cell viability assay."}, "NCI-N87": {"test_system": "NCI-N87", "format": "functional, cell-based, Homo sapiens", "conditions": "Homo sapiens, NCI-N87", "description": "SANGER: Inhibition of human NCI-N87 cell growth in a cell viability assay."}, "OAW-28": {"test_system": "OAW-28", "format": "functional, cell-based, Homo sapiens", "conditions": "Homo sapiens, OAW-28", "description": "SANGER: Inhibition of human OAW-28 cell growth in a cell viability assay."}, "LB771-HNC": {"test_system": "LB771-HNC", "format": "functional, cell-based, Homo sapiens", "conditions": "Homo sapiens, LB771-HNC"}, "LB2518-MEL": {"test_system": "LB2518-MEL", "format": "functional, cell-based, Homo sapiens", "conditions": "Homo sapiens, LB2518-MEL", "description": "SANGER: Inhibition of human LB2518-MEL cell growth in a cell viability assay."}, "VA-ES-BJ": {"test_system": "VA-ES-BJ", "format": "functional, cell-based, Homo sapiens", "conditions": "Homo sapiens, VA-ES-BJ", "description": "SANGER: Inhibition of human VA-ES-BJ cell growth in a cell viability assay."}, "COR-L88": {"test_system": "COR-L88", "format": "functional, cell-based", "conditions": "Homo sapiens", "description": "SANGER: Inhibition of human COR-L88 cell growth in a cell viability assay."}, "CAL-120": {"test_system": "CAL-120", "format": "functional, cell-based, Homo sapiens", "conditions": "Homo sapiens, CAL-120", "description": "SANGER: Inhibition of human CAL-120 cell growth in a cell viability assay."}, "CW-2": {"test_system": "CW-2", "format": "functional, cell-based, Homo sapiens", "conditions": "Homo sapiens, CW-2", "description": "SANGER: Inhibition of human CW-2 cell growth in a cell viability assay."}, "DMS-114": {"test_system": "DMS-114", "format": "functional, cell-based, Homo sapiens", "conditions": "Homo sapiens, DMS-114"}, "NCI-H23": {"test_system": "NCI-H23", "format": "functional, cell-based, Homo sapiens", "conditions": "Homo sapiens, NCI-H23"}, "K562": {"test_system": "K562", "format": "functional, cell-based", "conditions": "Homo sapiens", "description": "SANGER: Inhibition of human K-562 cell growth in a cell viability assay."}, "HD-MY-Z": {"test_system": "HD-MY-Z", "format": "functional, cell-based, Homo sapiens", "conditions": "Homo sapiens, HD-MY-Z", "description": "SANGER: Inhibition of human HD-MY-Z cell growth in a cell viability assay."}, "SK-N-FI": {"test_system": "SK-N-FI", "format": "functional, cell-based, Homo sapiens", "conditions": "Homo sapiens, SK-N-FI", "description": "SANGER: Inhibition of human SK-N-FI cell growth in a cell viability assay."}, "GP5d": {"test_system": "GP5d", "format": "functional, cell-based, Homo sapiens", "conditions": "Homo sapiens, GP5d", "description": "SANGER: Inhibition of human GP5d cell growth in a cell viability assay."}}, "note": "pIC50: −log10 of the molar value."}
{"smiles": "CN(C)C/C=C/C(=O)Nc1cc2c(Nc3ccc(F)c(Cl)c3)ncnc2cc1O[C@H]1CCOC1", "note": "[AFATINIB]", "values": [{"measurement": "pIC50", "setting": "SW1710", "result": "< 6.30"}, {"measurement": "pIC50", "setting": "P30-OHK", "result": "< 6.30"}, {"measurement": "pIC50", "setting": "NCI-H1650", "result": "< 6.30"}, {"measurement": "pIC50", "setting": "NB13", "result": "< 6.30"}, {"measurement": "pIC50", "setting": "CP66-MEL", "result": "< 6.30"}, {"measurement": "pIC50", "setting": "MMAC-SF", "result": "< 6.30"}, {"measurement": "pIC50", "setting": "IST-MES1", "result": "< 6.30"}, {"measurement": "pIC50", "setting": "EW-16", "result": "< 6.30"}, {"measurement": "pIC50", "setting": "NCI-H1563", "result": "< 6.30"}, {"measurement": "pIC50", "setting": "AU565", "result": 7.07}, {"measurement": "pIC50", "setting": "NCI-H596", "result": "< 6.30"}, {"measurement": "pIC50", "setting": "COLO-824", "result": "< 6.30"}, {"measurement": "pIC50", "setting": "NB69", "result": "< 6.30"}, {"measurement": "pIC50", "setting": "T84", "result": "< 6.30"}, {"measurement": "pIC50", "setting": "M14", "result": "< 6.30"}, {"measurement": "pIC50", "setting": "HT-1376", "result": "< 6.30"}, {"measurement": "pIC50", "setting": "ACHN", "result": 6.49}, {"measurement": "pIC50", "setting": "DoTc2-4510", "result": 6.49}, {"measurement": "pIC50", "setting": "COR-L105", "result": 6.68}, {"measurement": "pIC50", "setting": "A 172", "result": "< 6.30"}, {"measurement": "pIC50", "setting": "SW1990", "result": "< 6.30"}, {"measurement": "pIC50", "setting": "GI-1", "result": "< 6.30"}, {"measurement": "pIC50", "setting": "Huh-7", "result": "< 6.30"}, {"measurement": "pIC50", "setting": "ES3", "result": "< 6.30"}, {"measurement": "pIC50", "setting": "MN-60", "result": "< 6.30"}, {"measurement": "pIC50", "setting": "ASPC1", "result": "< 6.30"}, {"measurement": "pIC50", "setting": "K5", "result": "< 6.30"}, {"measurement": "pIC50", "setting": "D-247MG", "result": "< 6.30"}, {"measurement": "pIC50", "setting": "UMUC3", "result": "< 6.30"}, {"measurement": "pIC50", "setting": "U-118-MG", "result": "< 6.30"}, {"measurement": "pIC50", "setting": "G-401", "result": "< 6.30"}, {"measurement": "pIC50", "setting": "DBTRG-05MG", "result": "< 6.30"}, {"measurement": "pIC50", "setting": "MDA-MB-175-VII", "result": 7.47}, {"measurement": "pIC50", "setting": "SF-268", "result": "< 6.30"}, {"measurement": "pIC50", "setting": "PANC-03-27", "result": "< 6.30"}, {"measurement": "pIC50", "setting": "NCI-N87", "result": 7.56}, {"measurement": "pIC50", "setting": "OAW-28", "result": "< 6.30"}, {"measurement": "pIC50", "setting": "LB771-HNC", "result": "< 6.30"}, {"measurement": "pIC50", "setting": "LB2518-MEL", "result": "< 6.30"}, {"measurement": "pIC50", "setting": "VA-ES-BJ", "result": "< 6.30"}, {"measurement": "pIC50", "setting": "COR-L88", "result": "< 6.30"}, {"measurement": "pIC50", "setting": "CAL-120", "result": "< 6.30"}, {"measurement": "pIC50", "setting": "CW-2", "result": 6.33}, {"measurement": "pIC50", "setting": "DMS-114", "result": "< 6.30"}, {"measurement": "pIC50", "setting": "NCI-H23", "result": "< 6.30"}, {"measurement": "pIC50", "setting": "K562", "result": "< 6.30"}, {"measurement": "pIC50", "setting": "HD-MY-Z", "result": "< 6.30"}, {"measurement": "pIC50", "setting": "SK-N-FI", "result": "< 6.30"}, {"measurement": "pIC50", "setting": "GP5d", "result": "< 6.30"}]}
